Measured values: publication PMC6934184, “Selective DNA-PKcs inhibition extends the therapeutic index of localized radiotherapy and chemotherapy” (The Journal of Clinical Investigation, 2019)

Biological target: T1, SIK1 (Homo sapiens, UniProt P57059)
T1 construct: purchased Thermo Fisher Scientific (Life Technologies) SelectScreen
Test: SelectScreen LanthaScreen
Assay type: binding
Settings: 1 µM
Summary of the method: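 SelectScreen broad panel; activity (Z'LYTE, Adapta) plus binding formats. ATP: Km app for CSF1R Z'LYTE; 10 for CAMK1 Adapta. Readout = % per kinase.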

T1 sequence (P57059 whole entry): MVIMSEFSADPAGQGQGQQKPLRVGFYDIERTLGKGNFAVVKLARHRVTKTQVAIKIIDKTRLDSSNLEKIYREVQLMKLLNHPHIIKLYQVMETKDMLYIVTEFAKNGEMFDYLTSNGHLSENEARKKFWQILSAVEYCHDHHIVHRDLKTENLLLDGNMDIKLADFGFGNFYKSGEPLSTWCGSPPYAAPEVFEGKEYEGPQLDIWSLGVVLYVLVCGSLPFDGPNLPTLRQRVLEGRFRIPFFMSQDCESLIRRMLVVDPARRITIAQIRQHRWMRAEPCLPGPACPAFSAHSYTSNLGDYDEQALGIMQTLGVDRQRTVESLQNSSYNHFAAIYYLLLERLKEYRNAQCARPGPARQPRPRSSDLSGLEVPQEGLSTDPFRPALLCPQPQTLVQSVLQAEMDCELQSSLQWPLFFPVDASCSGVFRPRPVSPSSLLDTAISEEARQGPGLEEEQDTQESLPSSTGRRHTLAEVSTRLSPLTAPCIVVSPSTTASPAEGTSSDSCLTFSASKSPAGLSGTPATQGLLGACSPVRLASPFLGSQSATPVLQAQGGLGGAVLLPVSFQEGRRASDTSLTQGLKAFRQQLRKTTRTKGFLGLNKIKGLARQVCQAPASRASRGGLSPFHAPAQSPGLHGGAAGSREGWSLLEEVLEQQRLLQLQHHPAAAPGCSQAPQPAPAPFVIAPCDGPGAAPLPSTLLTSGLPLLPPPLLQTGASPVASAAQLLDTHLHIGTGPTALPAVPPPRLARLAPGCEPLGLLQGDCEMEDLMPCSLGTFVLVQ

CN(C(=O)CN1CCOCC1)c1ccc2sc3c(-c4cccc5c(=O)cc(N6CC7CCC(C6)O7)oc45)cccc3c2c1 [NU5455]
% displacement: 1.3%
